Structures are written as SMILES. Numbered stars: 1 amine (or outer) side, 2 acyl side, 3 side chain; on linkers, the order of the positions; unused ones are H or OH. Square brackets hold non-standard residues; d marks the D form. Side chains are listed from the residue outwards. Peptide text beside a SMILES is read from it. * marks the point of attachment. C20 diacid = O=C(O)CCCCCCCCCCCCCCCCCCC(=O)*; C18 diacid = O=C(O)CCCCCCCCCCCCCCCCC(=O)*; αMePhe(2-F) = C[C@](N)(Cc1ccccc1F)C(=O)O; γGlu = O=C(O)[C@H](CCC(=O)[*:2])N[*:1]; αMeL = CC(C)C[C@](C)(N)C(=O)O; AEEA = NCCOCCOCC(=O)O; Aib = CC(C)(N)C(=O)O Bounds are passed on as bounds.

Results on five compounds are retold here after patent US12252524B2, “GIP/GLP1 co-agonist compounds” (Eli Lilly and Company, priority 2018, dated 2025).

The target of assay [1] is human GLP-1R (Homo sapiens, UniProt P43220). Put plainly: [125I]-GLP-1 binding (SPA), human GLP-1 receptor. Also on record: expressed in transfected cells; crude membranes. Particulars: read-out: hGLP1R Ki, (nM) (SEM, n). The gist of the method:
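Membranes: hypotonic lysis (50 mM Tris HCl, pH 7.5, protease inhibitors), Potter-Elvehjem homogenization, high-speed pellet (35000×g 1 h or 25000×g 30 min, 4° C.). Buffer: 25 mM HEPES pH 7.4, 2.5 mM CaCl2, 1 mM MgCl2. Four-parameter IC50 fit; Ki as geometric mean ± SEM.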

Assay [2] deals with T1, human Gcg receptor (Homo sapiens, UniProt P47871).
T1 construct: expressed in transfected cells; crude membranes
Put plainly: [125I]-Glucagon binding (SPA), human Gcg receptor. Particulars: read-out: hGLcgR Ki, nM (SEM, n). The gist of the method: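 Cell pellets were lysed in hypotonic Tris buffer, pH 7.5, homogenized, and spun at low then high speed to give crude membranes. Ki was derived from the fitted IC50.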

Assay [3] deals with human GLP-1 receptor (GLP-1R) (Homo sapiens, UniProt P43220). Put plainly: cAMP pharmacological functional assay in presence of casein, hGLP-1R. The format is cell-based. The note with it: HEK293 cells expressing hGLP-1R, 0.1% Casein, geometric mean; read-out: hGLP1R cAMP Rel EC50 nM (SEM, n).
Assay [4] concerns the target T2, gastric inhibitory peptide receptor (GIPR) (Homo sapiens, UniProt P48546).
T2 sequence (P48546 22-466): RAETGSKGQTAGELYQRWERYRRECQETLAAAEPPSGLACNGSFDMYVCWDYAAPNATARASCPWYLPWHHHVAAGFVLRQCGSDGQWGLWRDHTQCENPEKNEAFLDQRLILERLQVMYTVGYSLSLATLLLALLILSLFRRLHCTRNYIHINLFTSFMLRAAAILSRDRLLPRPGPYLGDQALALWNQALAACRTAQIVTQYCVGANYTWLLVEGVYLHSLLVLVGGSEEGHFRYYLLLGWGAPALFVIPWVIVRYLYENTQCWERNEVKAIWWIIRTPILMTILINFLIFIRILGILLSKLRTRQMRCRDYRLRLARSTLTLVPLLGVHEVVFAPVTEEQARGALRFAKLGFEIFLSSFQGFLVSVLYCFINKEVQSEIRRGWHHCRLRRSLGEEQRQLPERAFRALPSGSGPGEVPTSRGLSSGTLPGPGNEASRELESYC
The experiment in a line: cAMP pharmacological functional assay in presence of casein, hGIPR. The note with it: HEK293 cells expressing hGIPR, 0.1% Casein, geometric mean; read-out: hGIPR cAMP Rel EC50 nM (SEM, n). The format is cell-based.

For assay [5], the target named is T3, human GIP receptor (Homo sapiens, UniProt P48546).
T3 construct: expressed in transfected cells; crude membranes
T3 sequence (P48546 22-466): T2 sequence (P48546 22-466)
The experiment in a line: [125I]-GIP binding (SPA), human GIP receptor. Particulars: read-out: hGIPR Ki, nM (SEM, n).

Chain of human GLP-1R (P43220 24-463): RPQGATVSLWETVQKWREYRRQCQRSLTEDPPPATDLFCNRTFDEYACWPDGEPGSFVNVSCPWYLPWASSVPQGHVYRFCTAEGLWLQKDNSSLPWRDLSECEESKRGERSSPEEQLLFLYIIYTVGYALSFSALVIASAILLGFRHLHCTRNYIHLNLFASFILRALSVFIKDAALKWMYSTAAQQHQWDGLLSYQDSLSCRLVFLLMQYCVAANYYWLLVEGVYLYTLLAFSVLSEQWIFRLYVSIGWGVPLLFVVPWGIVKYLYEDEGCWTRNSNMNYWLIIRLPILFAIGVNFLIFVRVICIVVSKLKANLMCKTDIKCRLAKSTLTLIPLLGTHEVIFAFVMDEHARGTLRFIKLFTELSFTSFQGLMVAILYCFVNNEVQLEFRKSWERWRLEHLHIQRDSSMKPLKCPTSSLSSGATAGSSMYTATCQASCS
Chain of human GLP-1 receptor (GLP-1R) (P43220 24-463): as above
T1 sequence (P47871 26-477): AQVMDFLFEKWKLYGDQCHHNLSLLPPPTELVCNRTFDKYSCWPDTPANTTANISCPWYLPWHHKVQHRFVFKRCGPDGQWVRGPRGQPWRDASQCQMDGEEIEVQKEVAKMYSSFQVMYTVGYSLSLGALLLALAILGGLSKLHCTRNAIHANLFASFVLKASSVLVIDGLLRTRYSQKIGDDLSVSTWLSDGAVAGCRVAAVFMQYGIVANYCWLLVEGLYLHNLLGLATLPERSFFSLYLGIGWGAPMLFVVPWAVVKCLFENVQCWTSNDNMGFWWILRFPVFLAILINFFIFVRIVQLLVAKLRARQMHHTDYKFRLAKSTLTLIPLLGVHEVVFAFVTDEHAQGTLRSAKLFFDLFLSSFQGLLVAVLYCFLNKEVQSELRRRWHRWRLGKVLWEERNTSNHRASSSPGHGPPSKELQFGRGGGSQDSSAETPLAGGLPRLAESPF

`CC[C@H](C)[C@H](NC(=O)[C@H](CC(C)C)NC(=O)[C@H](Cc1ccc(O)cc1)NC(=O)[C@@H](CCC(=O)O)NC(=O)[C@@H](NC(=O)[C@H](Cc1ccccc1)NC(=O)[C@H](CCC(=O)O)NC(=O)C(C)(C)NC(=O)[C@H](CCC(N)=O)NC(=O)[C@H](C)NC(=O)[C@H](CCCCNC(=O)COCCOCCNC(=O)COCCOCCNC(=O)[C@@H](N)CCCCNC(=O)CCCCCCCCCCCCCCCCCCC(=O)O)NC(=O)[C@H](CCC(=O)O)NC(=O)[C@H](CC(=O)O)NC(=O)[C@H](CC(C)C)NC(=O)C(C)(CC(C)C)NC(=O)[C@@H](NC(=O)[C@H](CO)NC(=O)[C@H](Cc1ccc(O)cc1)NC(=O)[C@H](CC(=O)O)NC(=O)[C@H](CO)NC(=O)[C@@H](NC(=O)C(C)(Cc1ccccc1F)NC(=O)[C@@H](NC(=O)CNC(=O)[C@H](CCC(=O)O)NC(=O)C(C)(C)NC(=O)[C@@H](N)Cc1ccc(O)cc1)[C@@H](C)O)[C@@H](C)O)[C@@H](C)CC)[C@@H](C)CC)C(=O)N[C@@H](CCC(=O)O)C(=O)NCC(=O)NCC(=O)N1CCC[C@H]1C(=O)N[C@@H](CO)C(=O)N[C@@H](CO)C(=O)NCC(=O)N[C@@H](C)C(=O)N1CCC[C@H]1C(=O)N1CCC[C@H]1C(=O)N1CCC[C@H]1C(=O)N[C@@H](CO)C(N)=O` (stereo partly shown) [Example 216]: the Ki in assay [1] worked out at 2.34 nM; in assay [2] it was 45.2 nM; in assay [5], 0.0559 nM. The half-maximal effective concentration (EC50) amounted to 0.0327 nM in assay [3] and 0.0401 nM in assay [4].

Regarding `CC[C@H](C)[C@H](NC(=O)[C@H](CC(C)C)NC(=O)[C@H](Cc1ccc(O)cc1)NC(=O)[C@H](CCC(=O)O)NC(=O)[C@@H](NC(=O)[C@H](Cc1ccccc1)NC(=O)[C@H](C)NC(=O)C(C)(C)NC(=O)[C@H](CCC(N)=O)NC(=O)[C@H](C)NC(=O)[C@H](CCCCNC(=O)COCCOCCNC(=O)COCCOCCNC(=O)CC[C@H](NC(=O)CCCCCCCCCCCCCCCCCCC(=O)O)C(=O)O)NC(=O)[C@H](CCCCN)NC(=O)[C@H](CC(=O)O)NC(=O)[C@H](CC(C)C)NC(=O)[C@H](CC(C)C)NC(=O)[C@@H](NC(=O)[C@H](CO)NC(=O)[C@H](Cc1ccc(O)cc1)NC(=O)[C@H](CC(=O)O)NC(=O)[C@H](CO)NC(=O)[C@@H](NC(=O)[C@H](Cc1ccccc1)NC(=O)[C@@H](NC(=O)CNC(=O)[C@H](CCC(=O)O)NC(=O)C(C)(C)NC(=O)[C@@H](N)Cc1ccc(O)cc1)[C@@H](C)O)[C@@H](C)O)[C@@H](C)CC)[C@@H](C)CC)C(=O)N[C@@H](CCC(=O)O)C(=O)N[C@@H](C)C(=O)NCC(=O)N1CCC[C@H]1C(=O)N[C@@H](CO)C(=O)N[C@@H](CO)C(=O)NCC(=O)N[C@@H](C)C(=O)N1CCC[C@H]1C(=O)N1CCC[C@H]1C(=O)N1CCC[C@H]1C(=O)N[C@@H](CO)C(N)=O` [Example 86] (H-Y[Aib]EGTFTSDYSILLDKK([AEEA-AEEA-γGlu-C20 diacid])AQ[Aib]AFIEYLIEAGPSSGAPPPS-NH2), the Ki in assay [1] is 3.74 nM; in assay [2] it was greater than 1060 nM; in assay [5], 0.0401 nM. Further, the EC50 turned out to be 0.271 nM in assay [3] and 0.0452 nM in assay [4].

In the case of `CC[C@H](C)[C@H](NC(=O)[C@H](CC(C)C)NC(=O)[C@H](Cc1ccc(O)cc1)NC(=O)[C@H](CCC(=O)O)NC(=O)[C@@H](NC(=O)[C@H](Cc1ccccc1)NC(=O)[C@H](C)NC(=O)C(C)(C)NC(=O)[C@H](CCC(N)=O)NC(=O)[C@H](C)NC(=O)[C@H](CCCCNC(=O)COCCOCCNC(=O)COCCOCCNC(=O)CC[C@H](NC(=O)CCCCCCCCCCCCCCCCC(=O)O)C(=O)O)NC(=O)[C@H](CCCCN)NC(=O)[C@H](CC(=O)O)NC(=O)[C@H](CC(C)C)NC(=O)[C@H](CC(C)C)NC(=O)[C@@H](NC(=O)[C@H](CO)NC(=O)[C@H](Cc1ccc(O)cc1)NC(=O)[C@H](CC(=O)O)NC(=O)[C@H](CO)NC(=O)[C@@H](NC(=O)[C@](C)(Cc1ccccc1F)NC(=O)[C@@H](NC(=O)CNC(=O)[C@H](CCC(=O)O)NC(=O)C(C)(C)NC(=O)[C@@H](N)Cc1ccc(O)cc1)[C@@H](C)O)[C@@H](C)O)[C@@H](C)CC)[C@@H](C)CC)C(=O)N[C@@H](C)C(=O)NCC(=O)NCC(=O)N1CCC[C@H]1C(=O)N[C@@H](CO)C(=O)N[C@@H](CO)C(=O)NCC(N)=O` [Example 313] (H-Y[Aib]EGT[αMePhe(2-F)]TSDYSILLDKK([AEEA-AEEA-γGlu-C18 diacid])AQ[Aib]AFIEYLIAGGPSSG-NH2), the Ki worked out at 0.815 nM in assay [1], 27.6 nM in assay [2] and 0.0261 nM in assay [5]. Also, the EC50 in assay [3] amounted to 0.0388 nM; in assay [4], 0.0233 nM.

For `CC[C@H](C)[C@H](NC(=O)[C@H](CCCCN)NC(=O)[C@H](CC(=O)O)NC(=O)[C@H](CC(C)C)NC(=O)[C@H](CC(C)C)NC(=O)[C@@H](NC(=O)[C@H](CO)NC(=O)[C@H](Cc1ccc(O)cc1)NC(=O)[C@H](CC(=O)O)NC(=O)[C@H](CO)NC(=O)[C@@H](NC(=O)[C@H](Cc1ccccc1)NC(=O)[C@@H](NC(=O)CNC(=O)[C@H](CCC(=O)O)NC(=O)C(C)(C)NC(=O)[C@@H](N)Cc1ccc(O)cc1)[C@@H](C)O)[C@@H](C)O)[C@@H](C)CC)C(=O)N[C@@H](C)C(=O)N[C@@H](CCC(N)=O)C(=O)NC(C)(C)C(=O)N[C@@H](C)C(=O)N[C@@H](Cc1ccccc1)C(=O)N[C@@H](CCCCNC(=O)COCCOCCNC(=O)COCCOCCNC(=O)CC[C@H](NC(=O)CCCCCCCCCCCCCCCCCCC(=O)O)C(=O)O)C(=O)N[C@@H](CCC(=O)O)C(=O)N[C@@H](Cc1ccc(O)cc1)C(=O)N[C@@H](CC(C)C)C(=O)N[C@H](C(=O)N[C@@H](CCC(=O)O)C(=O)NCC(=O)NCC(=O)N1CCC[C@H]1C(=O)N[C@@H](CO)C(=O)N[C@@H](CO)C(=O)NCC(=O)N[C@@H](C)C(=O)N1CCC[C@H]1C(=O)N1CCC[C@H]1C(=O)N1CCC[C@H]1C(=O)N[C@@H](CO)C(N)=O)[C@@H](C)CC` [Example 33] (H-Y[Aib]EGTFTSDYSILLDKIAQ[Aib]AFK([AEEA-AEEA-γGlu-C20 diacid])EYLIEGGPSSGAPPPS-NH2; N-terminus assumed), the Ki in assay [1] is 361 nM; in assay [2] it was greater than 979 nM; in assay [5], 6.4 nM. Also, the EC50 in assay [3] came out at 251 nM; in assay [4] it was 63.3 nM.

For `CC[C@H](C)[C@H](NC(=O)[C@H](CC(C)C)NC(=O)[C@H](Cc1ccc(O)cc1)NC(=O)[C@H](CCC(=O)O)NC(=O)[C@@H](NC(=O)[C@H](Cc1ccccc1)NC(=O)[C@H](C)NC(=O)[C@H](Cc1c[nH]cn1)NC(=O)[C@H](CCC(N)=O)NC(=O)[C@H](C)NC(=O)[C@H](CCCCNC(=O)COCCOCCNC(=O)COCCOCCNC(=O)CC[C@H](NC(=O)CCCCCCCCCCCCCCCCCCC(=O)O)C(=O)O)NC(=O)[C@H](CCCCN)NC(=O)[C@H](CC(=O)O)NC(=O)[C@H](CC(C)C)NC(=O)[C@](C)(CC(C)C)NC(=O)[C@@H](NC(=O)[C@H](CO)NC(=O)[C@H](Cc1ccc(O)cc1)NC(=O)[C@H](CC(=O)O)NC(=O)[C@H](CO)NC(=O)[C@@H](NC(=O)[C@H](Cc1ccccc1)NC(=O)[C@@H](NC(=O)CNC(=O)[C@H](CCC(=O)O)NC(=O)C(C)(C)NC(=O)[C@@H](N)Cc1c[nH]cn1)[C@@H](C)O)[C@@H](C)O)[C@@H](C)CC)[C@@H](C)CC)C(=O)N[C@@H](CCC(=O)O)C(=O)NCC(=O)NCC(=O)N1CCC[C@H]1C(=O)N[C@@H](CO)C(=O)N[C@@H](CO)C(=O)NCC(=O)N[C@@H](C)C(=O)N1CCC[C@H]1C(=O)N1CCC[C@H]1C(=O)N1CCC[C@H]1C(=O)N[C@@H](CO)C(N)=O` [Example 54] (H-H[Aib]EGTFTSDYSI[αMeL]LDKK([AEEA-AEEA-γGlu-C20 diacid])AQHAFIEYLIEGGPSSGAPPPS-NH2), the values for the inhibitory constant (Ki) in assay [1], in assay [2] and in assay [5] were 1.66 nM, 333 nM and 0.965 nM, respectively. The figures for the EC50 in assay [3] and in assay [4] were 0.0242 nM and 1.57 nM, respectively.
